Assay results from paper PMC12207590, “Substrate Specificity of the Organic Cation Transporters MATE1 and MATE2K and Functional Overlap with OCT1 and OCT2” (Journal of Medicinal Chemistry, 2025).
Where two headings read alike, the source gives them in different places.

Experiments:
MATE1 = molecular target: T1, MATE1 (Homo sapiens, UniProt Q96FL8); assay: Uptake ratio in MATE1-overexpressing HEK293 cells vs empty vector (2.5 μM, 1 min, HPLC-MS/MS); format: cell-based
T1 sequence (Q96FL8 1-570): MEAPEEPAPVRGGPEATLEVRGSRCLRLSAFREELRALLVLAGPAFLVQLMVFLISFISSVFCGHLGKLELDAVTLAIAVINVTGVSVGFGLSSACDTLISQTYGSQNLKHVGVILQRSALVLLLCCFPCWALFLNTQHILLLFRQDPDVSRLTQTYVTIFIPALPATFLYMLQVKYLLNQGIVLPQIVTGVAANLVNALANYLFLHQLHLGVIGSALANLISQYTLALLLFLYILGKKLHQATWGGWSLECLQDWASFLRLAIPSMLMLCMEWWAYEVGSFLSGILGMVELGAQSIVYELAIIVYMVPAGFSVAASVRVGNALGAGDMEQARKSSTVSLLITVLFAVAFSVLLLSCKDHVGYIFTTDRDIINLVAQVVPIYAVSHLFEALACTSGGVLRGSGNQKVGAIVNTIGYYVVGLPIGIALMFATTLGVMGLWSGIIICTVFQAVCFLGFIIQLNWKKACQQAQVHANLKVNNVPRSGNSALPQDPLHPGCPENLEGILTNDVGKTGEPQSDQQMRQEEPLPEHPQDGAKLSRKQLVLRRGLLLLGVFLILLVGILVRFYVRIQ

MATE2K = MATE2K (Homo sapiens, UniProt Q86VL8); assay: Uptake ratio in MATE2K-overexpressing HEK293 cells vs empty vector (2.5 μM, 1 min, HPLC-MS/MS); format: cell-based
[1] = fold uptake over empty vector, 2.5 μM, 1 min
[2] = mean ratio of uptake in MATE1-overexpressing HEK293 cells vs empty vector, 2.5 μM, 1 min
[3] = mean ratio of uptake in MATE2K-overexpressing HEK293 cells vs empty vector, 2.5 μM, 1 min

Chain of MATE2K (Q86VL8 1-566 isoform Q86VL8-3): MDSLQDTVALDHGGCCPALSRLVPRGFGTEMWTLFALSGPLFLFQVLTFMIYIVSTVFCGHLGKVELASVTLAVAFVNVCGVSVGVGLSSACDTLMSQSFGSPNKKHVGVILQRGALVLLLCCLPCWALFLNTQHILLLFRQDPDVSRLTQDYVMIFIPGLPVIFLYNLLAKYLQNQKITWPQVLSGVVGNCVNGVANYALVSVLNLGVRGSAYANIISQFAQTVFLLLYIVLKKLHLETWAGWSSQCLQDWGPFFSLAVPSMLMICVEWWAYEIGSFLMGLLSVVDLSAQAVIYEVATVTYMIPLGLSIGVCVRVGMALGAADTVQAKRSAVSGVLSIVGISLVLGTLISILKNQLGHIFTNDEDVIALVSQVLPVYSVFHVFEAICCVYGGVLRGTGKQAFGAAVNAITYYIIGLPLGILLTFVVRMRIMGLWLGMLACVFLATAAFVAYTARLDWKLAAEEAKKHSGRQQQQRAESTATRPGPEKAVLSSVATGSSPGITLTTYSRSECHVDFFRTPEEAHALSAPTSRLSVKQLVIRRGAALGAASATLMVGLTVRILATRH

SMILES	MATE1 ratio (MATE1; [1])	MATE1 (uptake ratio) (MATE1; [2])	MATE2K ratio (MATE2K; [1])	MATE2 (uptake ratio) (MATE2K; [3])	MATE1 (uptake ratio) (MATE1)	MATE1 ratio (MATE1)	MATE2 (uptake ratio) (MATE2K)	MATE2K ratio (MATE2K)	MATE1 ratio in this study (MATE1; Table S1, 2.5 μM, 1 min)	MATE2K ratio in this study (MATE2K; Table S1, 2.5 μM, 1 min)
Cc1cc(O)cc(C)c1OCC(C)N (stereo not shown) [4-Hydroxymexiletine]	1.67	1.67	1.42	1.42						
COc1ccc(CCN)cc1O [4-Methoxy-m-tyramine]					3.09	3.09	1.19	1.19		
COc1ccc(CCN)cc1 [4-Methoxyphenethylamine]					1.4	1.40	1.23	1.23		
NCCc1c[nH]c2c(O)cc(O)cc12 [5,7-Dihydroxytryptamine]					1.13	1.13	0.84	0.84		
Nc1ccc2[nH]ncc2c1 [5-Aminoindazole]	0.99	0.99	0.73	0.73						
NCCc1cc(O)c(O)cc1O [6-Hydroxydopamine]					1.05	1.05	1.24	1.24		
Oc1ccc2c3c1O[C@H]1[C@H](O)CC[C@@]4(O)[C@@H](C2)N(CC2CC2)CC[C@]314 [6-beta-Naltrexol]					1.2	1.20	1.2	1.20		
CNCC/C=C1/c2ccccc2CC(O)c2ccccc21 (stereo not shown) [10-OH-Nortriptyline]					1.17	1.17	1.14	1.14		
C[C@]12CCC(=O)C=C1CC[C@@H]1[C@@H]2CC[C@@]2(C)[C@H]1CC[C@]2(C)O [17-Alpha-methyltestosterone]					1.17	1.17	1.22	1.22		
N=C(N)NCCC[C@H](NC(=O)c1ccc2ccccc2c1O)C(=O)N1CCC[C@H]1C(N)=O [APC366]					19.12	19.12	1.41	1.41		
Nc1nc(NC2CC2)c2ncn([C@H]3C=C[C@@H](CO)C3)c2n1 [Abacavir]	0.94	0.94	1.25	1.25						
CCN1CCN(Cc2ccc(Nc3ncc(F)c(-c4cc(F)c5nc(C)n(C(C)C)c5c4)n3)nc2)CC1 [Abemaciclib]	1.06	1.06	1.01	1.01						
CCCS(=O)(=O)N[C@H]1C[C@@H](N(C)c2ncnc3[nH]ccc23)C1 [Abrocitinib]	1.09	1.09	1.19	1.19						
CC(=O)OC1CN2CCC1CC2 (stereo not shown) [Aceclidine]					1.26	1.26	1.08	1.08		
O=C(O[C@H]1C[N+]2(CCCOc3ccccc3)CCC1CC2)C(O)(c1cccs1)c1cccs1 [Aclidinium (S), Aclidinium]	5.36	5.36	1.64	1.64						
O=C(O[C@H]1C[N+]2(CCCOc3ccccc3)CCC1CC2)C(O)(c1cccs1)c1cccs1 [Aclidinium]	4.73	4.73	1.17	1.17						
CCN1C[C@]2(COC)[C@H](O)C[C@H](OC)[C@@]34[C@@H]5C[C@@]6(O)[C@H](OC(=O)c7ccccc7)[C@@H]5[C@@](OC(C)=O)([C@@H]([C@H](OC)[C@H]23)[C@@H]14)[C@@H](O)[C@@H]6OC [Aconitine]					1.13	1.13	1.32	1.32		
NCCCCN=C(N)N [Agmatine]	1.08	1.08	1.05	1.05					1.08	1.05
Oc1ncnc2[nH]ncc12 [Allopurinol]	1.08	1.08	0.85	0.85						
CN(C)CCc1c[nH]c2ccc(CS(=O)(=O)N3CCCC3)cc12 [Almotriptan]	4.40	4.4	2.36	2.36						
